In US10031128B2, “Screening method, screening kit and analysis program” (National Institutes for Quantum and Radiological Science …, priority 2012, dated 2018):
Where two headings read alike, the source gives them in different places.

Test system: rat thymocytes
Type: cell-based
Conditions: 4 h, pH 6.8
Protocol: As Example 1, an example using thymocytes as lymphoid cells will be described. In this example, rat thymocytes are used. A rat is suited for studies of screening and the like because a rat has the thymus larger than that of a mouse, and a large quantity of thymocytes corresponding to 2000 to 20000 samples is obtained from one rat.
(1) First, extract the thymus surgically from a rat.
(2) The extracted thymus is washed lightly in PBS. This washing may be performed for 1 minute to 5 minutes, and actually for 2 minutes to 3 minutes merely for washing out excess blood or tissues.
(3) The washed thymus is put into a RPMI 1640 medium supplemented with approximately 10% FBS (fetal bovine serum) (having subjected to an inactivation treatment). As the inactivation treatment, a heat treatment at 56° C. is performed for 30 minutes. In the example, the RPMI 1640 medium is 500 ml (ml is a unit symbol for milliliter, the same shall apply hereinafter), and FBS is 55 ml. Thereafter, the thymocytes are kept in the RPMI 1640 medium supplemented with serum to improve the separating ability of the presence or absence of condensation, and improve the measurement accuracy.
(4) Thymocytes are squeezed out of the thymus with tweezers, and passed through mesh to remove unnecessary contaminants and to disassemble the thymocytes. The culture temperature during this treatment is 4° C., and pH is 6.8. The amount of the medium used during cell purification is approximately 20 ml.
(5) The number of cells is counted, and a required number of the cells are seeded on a plate. In the experiment of this example, 5×10^5 cells/well are seeded using a 48-well plate. Also, since measurement is performed for about 20 samples in the experiment of this example, approximately 10 ml of a medium is used. As the medium, a medium of the volume conforming to the container is required. For example, when a 48-well plate is used, approximately 500 μl/well (microliter per well) is required in seeding cells on the plate. When a 96-well plate is used, approximately 50 to 200 μl/well is required in seeding cells on the plate. When one 96-well plate is used, up to approximately 20 ml of a medium is required.
In this example, (I) irradiation with 2 Gy X-ray, (II) administration with a 1 mM (mM is a unit symbol for millimolar, the same shall apply hereinafter) catechin derivative, (III) preliminary administration with a 1 mM catechin derivative and irradiation with 2 Gy X-ray, (IV) administration with 100 μM epigallocatechin (μM is a unit symbol for micromolar, the same shall apply hereinafter), (V) administration with 10 μM vitamin C, or (VI) administration with 100 μM vitamin C was performed. The temperature of the medium in performing this treatment can be 4° C. to room temperature, and is preferably approximately 4° C. so as not to promote the reaction. Gray (Gy) is a unit for absorbed dose of radiation. The absorbed dose when 1 joule of radiation energy is absorbed in 1 kilogram of a substance by radiation is defined as 1 gray.
The samples of (I) to (VI) in Step 2 were incubated for 4 hours. During the incubation, the medium is at a temperature of 37° C., at a CO2 concentration of 5%, under humidification, and at pH 6.8.
After the incubation in Step 3, measurement was performed by using FACSCALIBUR™ (a flow cytometry system). The time required for the measurement is about one hour. […]
FIG. 2(A) to FIG. 2(D), and FIG. 3(A) to FIG. 3(D) are cell size measurement graphs showing measured cell sizes. […]

Structure (SMILES)	peak of cell size (cell size measurement graph) (100 μM)	another peak at apoptotic cell peak position (cell size) (10 μM)	peak of cell size (cell size measurement graph) (10 μM)	another peak at apoptotic cell peak position (cell size) (100 μM)
Oc1cc(O)c2c(c1)O[C@H](c1cc(O)c(O)c(O)c1)[C@H](O)C2 [epigallocatechin]	around 300	–	–	–
O=C1O[C@H]([C@@H](O)CO)C(O)=C1O [vitamin C]	around 400	around 250	around 400	around 250
